Results reported in ChEMBL document CHEMBL4616628, “Unexpected small molecules as novel SIRT2 suicide inhibitors” (Bioorg Med Chem, 2020).
Activity calls are given as the source filed them. The calls are words filed in the database; no cut-off is given here.

Assays:
[1] = target: T1, NAD-dependent protein deacetylase sirtuin-2 (Homo sapiens, UniProt Q8IXJ6); assay: Inhibition of SIRT2 deacetylation activity (unknown origin) using H3K9Ac ( 4 to 15 residues) as substrate by HPLC analysis
T1 sequence (Q8IXJ6 whole entry): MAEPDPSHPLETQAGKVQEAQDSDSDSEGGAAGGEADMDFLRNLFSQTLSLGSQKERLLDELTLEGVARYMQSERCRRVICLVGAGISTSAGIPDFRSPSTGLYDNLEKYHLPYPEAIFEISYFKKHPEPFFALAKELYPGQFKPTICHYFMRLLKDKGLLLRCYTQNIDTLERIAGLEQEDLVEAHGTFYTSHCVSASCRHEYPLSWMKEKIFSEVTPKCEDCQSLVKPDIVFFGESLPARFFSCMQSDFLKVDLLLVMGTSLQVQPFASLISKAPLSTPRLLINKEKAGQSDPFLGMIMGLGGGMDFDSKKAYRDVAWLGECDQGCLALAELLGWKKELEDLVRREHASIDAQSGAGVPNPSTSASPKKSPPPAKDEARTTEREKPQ

[2] = target: T2, NAD-dependent protein deacetylase sirtuin-3, mitochondrial (Homo sapiens, UniProt Q9NTG7); assay: Inhibition of SIRT3 deacetylation activity (unknown origin) using H3K9Ac (4 to 15 residues) as substrate by HPLC analysis
T2 sequence (Q9NTG7 whole entry): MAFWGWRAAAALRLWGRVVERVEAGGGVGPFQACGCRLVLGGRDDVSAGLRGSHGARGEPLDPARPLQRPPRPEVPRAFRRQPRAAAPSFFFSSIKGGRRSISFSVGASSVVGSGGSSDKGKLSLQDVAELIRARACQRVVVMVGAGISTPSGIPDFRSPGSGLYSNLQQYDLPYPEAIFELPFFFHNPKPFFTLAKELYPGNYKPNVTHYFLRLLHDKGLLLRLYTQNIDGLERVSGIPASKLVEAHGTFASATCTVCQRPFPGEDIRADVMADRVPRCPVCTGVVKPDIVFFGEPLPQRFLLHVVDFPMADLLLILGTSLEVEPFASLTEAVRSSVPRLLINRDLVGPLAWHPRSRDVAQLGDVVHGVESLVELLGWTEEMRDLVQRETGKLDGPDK

[3] = target: T3, NAD-dependent protein deacetylase sirtuin-1 (Homo sapiens, UniProt Q96EB6); assay: Inhibition of SIRT1 deacetylation activity (unknown origin) using H3K9Ac (4 to 15 residues) as substrate by HPLC analysis
T3 sequence (Q96EB6 whole entry): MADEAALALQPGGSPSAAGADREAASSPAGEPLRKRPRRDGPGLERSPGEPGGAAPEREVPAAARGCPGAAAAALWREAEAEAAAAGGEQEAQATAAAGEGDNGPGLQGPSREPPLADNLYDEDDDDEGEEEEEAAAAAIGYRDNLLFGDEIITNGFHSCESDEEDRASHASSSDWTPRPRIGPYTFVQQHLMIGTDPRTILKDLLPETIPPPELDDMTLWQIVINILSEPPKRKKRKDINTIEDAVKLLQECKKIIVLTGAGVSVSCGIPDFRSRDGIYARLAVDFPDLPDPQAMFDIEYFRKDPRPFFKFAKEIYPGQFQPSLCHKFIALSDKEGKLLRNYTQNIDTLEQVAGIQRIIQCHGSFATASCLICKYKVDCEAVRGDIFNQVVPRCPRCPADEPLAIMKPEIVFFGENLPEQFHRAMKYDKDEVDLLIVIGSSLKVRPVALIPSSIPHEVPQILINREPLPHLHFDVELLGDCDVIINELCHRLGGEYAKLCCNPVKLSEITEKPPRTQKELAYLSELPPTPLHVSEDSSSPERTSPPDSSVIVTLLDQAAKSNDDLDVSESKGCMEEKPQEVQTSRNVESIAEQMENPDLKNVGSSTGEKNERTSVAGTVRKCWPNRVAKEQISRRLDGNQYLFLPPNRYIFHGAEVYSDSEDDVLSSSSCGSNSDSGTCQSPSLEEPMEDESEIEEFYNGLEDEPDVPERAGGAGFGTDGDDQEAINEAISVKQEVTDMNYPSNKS

[4] = target: NAD-dependent protein deacylase sirtuin-5, mitochondrial (Homo sapiens, UniProt Q9NXA8); assay: Inhibition of SIRT5 desuccinylation activity (unknown origin) using H3K9Su (4 to 15 residues) as substrate by HPLC analysis
Sequence of NAD-dependent protein deacylase sirtuin-5, mitochondrial (Q9NXA8 whole entry, the tested form may be a part): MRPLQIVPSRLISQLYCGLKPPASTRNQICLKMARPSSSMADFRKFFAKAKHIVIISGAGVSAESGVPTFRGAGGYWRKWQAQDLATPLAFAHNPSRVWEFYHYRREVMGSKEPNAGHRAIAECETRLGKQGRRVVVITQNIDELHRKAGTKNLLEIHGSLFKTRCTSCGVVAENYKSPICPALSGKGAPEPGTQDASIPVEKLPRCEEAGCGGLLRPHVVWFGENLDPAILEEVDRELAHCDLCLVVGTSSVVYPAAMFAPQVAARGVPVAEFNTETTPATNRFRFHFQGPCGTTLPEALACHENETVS

[5] = target: T4, NAD-dependent protein deacetylase sirtuin-2 (Homo sapiens) (UniProt Q8IXJ6); assay: Inhibition of SIRT2 deacetylation activity (unknown origin) assessed as increase in substrate apparent Km at 2 uM using H4K8Ac (3 to 13 residues) as substrate
T4 sequence (whole entry): T1 sequence (Q8IXJ6 whole entry)

Homo sapiens [6] = species on record: Homo sapiens; assay: Selectivity ratio of IC50 for inhibition of SIRT5 desuccinylation activity (unknown origin) to IC50 for inhibition of SIRT2 deacetylation activity (unknown origin)
[7] = target: T1, NAD-dependent protein deacetylase sirtuin-2; assay: Inhibition of SIRT2 defatty-acylation activity (unknown origin) using H4K8-Myr (3 to 13 residues) as substrate by HPLC analysis
Homo sapiens [8] = species on record: Homo sapiens; assay: Selectivity ratio of IC50 for inhibition of SIRT1 deacetylation activity (unknown origin) to IC50 for inhibition of SIRT2 deacetylation activity (unknown origin)
[9] = target: T4, NAD-dependent protein deacetylase sirtuin-2 (Homo sapiens); assay: Irreversible inhibition of SIRT2 deacetylation activity (unknown origin) up to 40 uM using H4K8Ac (3 to 13 residues) as substrate
[10] = target: T1, NAD-dependent protein deacetylase sirtuin-2; assay: Inhibition of SIRT2 deacetylation activity (unknown origin) using H4K8Ac (3 to 13 residues) as substrate by HPLC analysis
Homo sapiens [11] = species on record: Homo sapiens; assay: Selectivity ratio of IC50 for inhibition of SIRT3 deacetylation activity (unknown origin) to IC50 for inhibition of SIRT2 deacetylation activity (unknown origin)
[12] = target: T1, NAD-dependent protein deacetylase sirtuin-2; assay: Inhibition of SIRT2 debenzoylation activity (unknown origin) using benzoylated histone H4K8 peptide (3 to 13 residues ) as substrate by HPLC analysis

IC50 [1] | IC50 [2] | IC50 [3] | IC50 [4] | inhibition [5] | Ratio IC50 (Homo sapiens [6]) | IC50 [7] | Ratio IC50 (Homo sapiens [8]) | inhibition [9] | IC50 [10] | Ratio IC50 (Homo sapiens [11]) | IC50 [12] | SMILES
56.6 µM | > 200 µM | > 200 µM | > 200 µM | – | – | – | – | – | – | – | – | O=C(On1nnc2ccccc21)c1cc[nH]c1
77.1 µM | – | 40.3 µM | > 200 µM | – | – | – | – | – | – | – | – | O=C(On1nnc2ncccc21)c1c[nH]c2ccc(Br)cc12
42.7 µM | > 200 µM | > 200 µM | > 200 µM | – | – | – | – | – | – | – | – | O=C(On1nnc2ccccc21)c1ccc[nH]1
74 µM | 84.9 µM | 51.9 µM | > 200 µM | – | – | – | – | – | – | – | – | Cc1ccc2[nH]cc(C(=O)On3nnc4ccccc43)c2c1
14.3 µM | > 200 µM | > 200 µM | > 200 µM | Active | 10 | 73.6 µM | 10 | Active | 22.1 µM | 10 | 81 µM | O=C(On1nnc2ccccc21)c1c[nH]c2ccccc12
– | > 200 µM | > 200 µM | > 200 µM | – | – | – | – | – | – | – | – | Cc1cc(C)nc(SCC(=O)Nc2ncc(Cc3cccc4ccccc34)s2)n1
